Measured values as given in PMC7036753, “Lipidated Analogs of the LL-37-Derived Peptide Fragment KR12—Structural Analysis, Surface-Active Properties and Antimicrobial Activity” (International Journal of Molecular Sciences, 2020).
Values after ≈ are worked out from the molar mass of the structure shown. Peptide text beside a SMILES is read from it. * marks the point of attachment. Myristoyl = CCCCCCCCCCCCCC(=O)*; Lauroyl = CCCCCCCCCCCC(=O)*; Hexanoyl = CCCCCC(=O)*

Tests used:
[1] = system: E. faecium ATCC 700221; assay type: cell-based, Enterococcus faecium; conditions: ATCC 700221, 18 h
Procedure: (§1) Examination of antimicrobial activity of the test compounds was conducted on reference strains of bacteria assigned to ESKAPE group of pathogens: Enterococcus faecium ATCC 700221, Klebsiella pneumoniae ATCC 700603, Acinetobacter baumannii ATCC BAA-1605, Pseudomonas aeruginosa ATCC 9027, Klebsiella aerogenes ATCC 13048 (formerly Enterobacter aerogenes) and reference strains of Staphylococcus aureus, namely: S. aureus ATCC 25923, S. aureus ATCC 6538, S. aureus ATCC 33591 (MRSA), S. aureus ATCC 9144 and S. aureus ATCC 12598. All the strains were stored at −80 °C in Roti®-Store cryo vials (Carl Roth GmbH, Karlsruhe, Germany) and before the tests were transferred into fresh Mueller-Hinton Medium (BioMaxima, Lublin, Poland) and incubated for 24 h at 37 °C. Subsequently, each bacterial inoculum was seeded on Mueller-Hinton Agar plates (BioMaxima) and incubated again for 24 h. The cultures prepared in this way were used in further antimicrobial assays and prepared as described above. The MIC values were determined by the broth microdilution method according to Clinical and Laboratory Standards Institute Protocol. For this purpose, initial inoculums of bacteria (0.5 × 10^5 colony forming unit (CFU)/mL) in Mueller–Hinton Broth were exposed to the ranging concentrations of compounds (0.5–256 µg/mL) and incubated for 18 h at 37 °C. The experiments were conducted on 96-well microtiter plates, with a final volume of 100 µL. Cell densities were adjusted spectrophotometrically (Multiskan™ GO Microplate Spectrophotometer, Thermo Scientific) at 600 nm. The MICs were taken as the lowest drug concentration at which a visible growth of microorganisms was inhibited. All experiments were conducted in triplicate and included positive (growth) and negative (sterility) controls.

[2] = system: K. pneumoniae ATCC 700603; assay type: cell-based, Klebsiella pneumoniae; conditions: ATCC 700603, 18 h
Procedure: as §1

[3] = system: A. baumannii ATCC BAA-1605; assay type: cell-based, Acinetobacter baumannii; conditions: ATCC BAA-1605, 18 h
Procedure: as §1

[4] = system: P. aeruginosa ATCC 9027; assay type: cell-based, Pseudomonas aeruginosa; conditions: ATCC 9027, 18 h
Procedure: as §1

[5] = system: K. aerogenes ATCC 13048; assay type: cell-based, Klebsiella aerogenes; conditions: ATCC 13048, 18 h
Procedure: as §1

[6] = system: S. aureus ATCC 12598; assay type: cell-based, Staphylococcus aureus; conditions: ATCC 12598, 18 h
Procedure: as §1

[7] = system: S. aureus ATCC 25923; assay type: cell-based, Staphylococcus aureus; conditions: ATCC 25923, 18 h
Procedure: as §1

[8] = system: S. aureus ATCC 33591 (MRSA); assay type: cell-based, Staphylococcus aureus; conditions: ATCC 33591, 18 h
Procedure: as §1

[9] = system: S. aureus ATCC 6538; assay type: cell-based, Staphylococcus aureus; conditions: ATCC 6538, 18 h
Procedure: as §1

[10] = system: S. aureus ATCC 9144; assay type: cell-based, Staphylococcus aureus; conditions: ATCC 9144, 18 h
Procedure: as §1

[11] = system: S. aureus ATCC 12598 biofilm; assay type: cell-based, Staphylococcus aureus; conditions: ATCC 12598, 24 h
Procedure: (§2) The MBECs values were determined according to the method reported previously. Briefly, 24-h cultures of S. aureus, namely: S. aureus ATCC 25923, S. aureus ATCC 6538, S. aureus ATCC 33591 (MRSA), S. aureus ATCC 9144 and S. aureus ATCC 12598 were diluted to a concentration of 0.5 × 10^7 CFU/mL and added to the test wells of polystyrene microdilution flat-bottom plates. After 24-h of incubation at 37 °C, the wells were rinsed three times with PBS to remove non-adherent cells. Subsequently, 100 μL of the test compounds over a concentration range 0.5–256 µg/mL were added to each well and incubated again for 24 h at 37 °C. After this period, 20 μL of the resazurin (7-hydroxy-3H-phenoxazin-3-one-10-oxide, 4 mg/mL) solution was added to each well. After 1 h of incubation, the MBECs were read out. The determined values were recorded as the lowest concentration at which the reduction of resazurin (from blue to pink) was lower or equal to 10 ± 0.5% as compared to the positive (100%) and negative (0%) controls. All experiments were performed in triplicate.

[12] = system: S. aureus ATCC 25923 biofilm; assay type: cell-based, Staphylococcus aureus; conditions: ATCC 25923, 24 h
Procedure: as §2

[13] = system: S. aureus ATCC 33591 (MRSA) biofilm; assay type: cell-based, Staphylococcus aureus; conditions: ATCC 33591, 24 h
Procedure: as §2

[14] = system: S. aureus ATCC 6538 biofilm; assay type: cell-based, Staphylococcus aureus; conditions: ATCC 6538, 24 h
Procedure: as §2

[15] = system: S. aureus ATCC 9144 biofilm; assay type: cell-based, Staphylococcus aureus; conditions: ATCC 9144, 24 h
Procedure: as §2

[16] = system: human keratinocytes (HaCaT); assay type: cell-based; conditions: 24 h
Procedure: The cytotoxicity of test compounds (IC50) was evaluated for human keratinocytes (HaCaT, ATCC) using classic MTT assay on 96-well plates. In this assay, a colorimetric determination of the cell metabolic activity was carried out. Specifically, the color intensity reflects the number of live cells that can be measured spectrophotometrically. […] A day after plating 500 cells per well, a series of concentrations (0.5–500 μg/mL) of the test compounds were added. Dimethyl sulfoxide (DMSO) was used as a control in cells at a final concentration of 1.0% (v/v), which was related to the maximal concentration of the solvent compounds used in the experiment. After 24 h of incubation with test compounds, a medium containing 1 mg/mL of MTT was added up to a final concentration of 0.5 mg/mL and subsequently incubated at 37 °C for 4 h. Then, the medium was aspirated and the formazan product was solubilized with DMSO. The background absorbance at 630 nm was subtracted from that at 570 nm for each well (Epoch, BioTek Instruments, Winooski, VT, USA). Six replicates were conducted for each concentration. All experiments were repeated at least twice and the resulting IC50 values were calculated with a GraFit 7 software (v. 7.0, Erithacus, Berkley, CA, USA).

[17] = system: reference strains of S. aureus; assay type: cell-based, Staphylococcus aureus; conditions: reference strains of, 24 h
Procedure: as §1, with “For this purpose, initial inoculums of bacteria (0.5 × 10^5 colony forming unit (CFU)/mL) in Mueller–Hinton Broth were exposed to the ranging concentrations of compounds (0.5–256 µg/mL) and incubated for 18 h at 37 °C.” left out

Molecule	MIC [1] [µg/mL]	MIC [2] [µg/mL]	MIC [3] [µg/mL]	MIC [4] [µg/mL]	MIC [5] [µg/mL]	MIC [6] [µg/mL]	MIC [7] [µg/mL]	MIC [8] [µg/mL]	MIC [9] [µg/mL]	MIC [10] [µg/mL]	MBEC [11] [µg/mL]	MBEC [12] [µg/mL]	MBEC [13] [µg/mL]	MBEC [14] [µg/mL]	MBEC [15] [µg/mL]	IC50 [16] [µg/mL]	GM (geometric mean of the MIC values against S. aureus) [17] [µg/mL]
CCCCCCCCCCCCCC(=O)N[C@@H](CCCCN)C(=O)N[C@@H](CCCNC(=N)N)C(=O)N[C@H](C(=O)N[C@H](C(=O)N[C@@H](CCC(N)=O)C(=O)N[C@@H](CCCNC(=N)N)C(=O)N[C@H](C(=O)N[C@@H](CCCCN)C(=O)N[C@@H](CC(=O)O)C(=O)N[C@@H](Cc1ccccc1)C(=O)N[C@@H](CC(C)C)C(=O)N[C@@H](CCCNC(=N)N)C(N)=O)[C@@H](C)CC)C(C)C)[C@@H](C)CC [VII, C14-KR12-NH2] (Myristoyl-KRIVQRIKDFLR-NH2)	8 (≈ 4.49 µM)	64 (≈ 35.9 µM)	32 (≈ 18 µM)	128 (≈ 71.9 µM)	128 (≈ 71.9 µM)	128 (≈ 71.9 µM)	128 (≈ 71.9 µM)	16 (≈ 8.98 µM)	64 (≈ 35.9 µM)	64 (≈ 35.9 µM)	64	256	256	256	128	1.29 (≈ 0.724 µM)	64.00
Ac-KRIVQRIKDFLR-NH2 [I, Ac-KR12-NH2 (C2-KR12-NH2)]	16	>256	>256	64	>256	>256	>256	>256	256	>256	>256	>256	>256	>256	>256	84.20	>256.00
CCCCCC(=O)N[C@@H](CCCCN)C(=O)N[C@@H](CCCNC(=N)N)C(=O)N[C@H](C(=O)N[C@H](C(=O)N[C@@H](CCC(N)=O)C(=O)N[C@@H](CCCNC(=N)N)C(=O)N[C@H](C(=O)N[C@@H](CCCCN)C(=O)N[C@@H](CC(=O)O)C(=O)N[C@@H](Cc1ccccc1)C(=O)N[C@@H](CC(C)C)C(=O)N[C@@H](CCCNC(=N)N)C(N)=O)[C@@H](C)CC)C(C)C)[C@@H](C)CC [III, C6-KR12-NH2] (Hexanoyl-KRIVQRIKDFLR-NH2)	2 (≈ 1.2 µM)	16 (≈ 9.59 µM)	16 (≈ 9.59 µM)	8 (≈ 4.79 µM)	16 (≈ 9.59 µM)	8 (≈ 4.79 µM)	16 (≈ 9.59 µM)	16 (≈ 9.59 µM)	4 (≈ 2.4 µM)	8 (≈ 4.79 µM)	16	32	16	16	16	10.13 (≈ 6.07 µM)	9.19
CCCCCCCCCCCC(=O)N[C@@H](CCCCN)C(=O)N[C@@H](CCCNC(=N)N)C(=O)N[C@H](C(=O)N[C@H](C(=O)N[C@@H](CCC(N)=O)C(=O)N[C@@H](CCCNC(=N)N)C(=O)N[C@H](C(=O)N[C@@H](CCCCN)C(=O)N[C@@H](CC(=O)O)C(=O)N[C@@H](Cc1ccccc1)C(=O)N[C@@H](CC(C)C)C(=O)N[C@@H](CCCNC(=N)N)C(N)=O)[C@@H](C)CC)C(C)C)[C@@H](C)CC [VI, C12-KR12-NH2] (Lauroyl-KRIVQRIKDFLR-NH2)	4 (≈ 2.28 µM)	32 (≈ 18.3 µM)	16 (≈ 9.13 µM)	32 (≈ 18.3 µM)	32 (≈ 18.3 µM)	32 (≈ 18.3 µM)	32 (≈ 18.3 µM)	16 (≈ 9.13 µM)	32 (≈ 18.3 µM)	32 (≈ 18.3 µM)	32	256	128	256	64	7.60 (≈ 4.33 µM)	27.86
